According to patent publication US7005274B1, “Methods and compositions for diagnosing and treating arthritic disorders and regulating bone mass” (MIGENIX Corp., priority 1999, dated 2006):

Assays:
[1] = tested on: TC28 cells; assay: Intracellular ATP, luciferase assay; format: cell-based; conditions: for intracellular ATP levels relative to control culture not exposed to NOC-12: NOC-12 alone or in the presence of 1 μM compound
Experimental: (§1) Levels of total cellular ATP were measured by a modification of luciferase-based assays known in the art (Lin et al., Anal. Biochem. 24:531–540, 1968); related assays and modifications may alternatively be used (see, e.g., Turman et al., In Vitro Cell. Dev. Biol. Anim. 32:1–4, 1996, for an assay format that uses a fluorescent plate reader). In brief, 2×10^6 cells were washed and pelleted in 10 ml phosphate-buffered saline (PBS). The cell pellets were snap-frozen in a dry ice/ethanol bath, after which […] of 0.2 M HCl was added, followed by 0.3 ml of 2 mM glycine (pH 9.0). Samples were heated at 100° C. for five minutes, then placed on ice. A standard curve was developed using 0 to 500 pmol of purified ATP (disodium salt). One hundred (100) μl of the cell extract, or purified ATP standard, was added to an equal volume of the ATP assay mixture (containing MgSO4, DTT, EDTA, luciferase and luciferin, all from the Sigma Bioluminescence Assay Kit and all diluted 1:25). Following a 5 second incubation and 15 second integration, samples were read on a TD-20/20 Luminometer (Turner Designs, Sunnyvale, Calif.).

[2] = tested on: Articular Chondrocytes; assay: Intracellular ATP, luciferase assay; format: cell-based, human; conditions: 10 ng/ml TGFβ, 0.025 mM antimycin A, 0.02 μg/ml oligomycin; mean ± SD
Experimental: Human articular cartilage chondrocytes were obtained by collagenase digestion of articular cartilage samples, and subsequent monolayer culture, essentially as described by Terkeltaub et al. (Arthritis Rheum. 41:2152–2164, 1998). The starting material for these primary cultures was human articular cartilage excised during surgical joint replacement, or obtained at autopsy from normal or osteoarthritic joints. The articular chondrocytes were grown in Dulbecco's modified Eagle's Medium with high glucose (DMEM high glucose, Life Technologies, Inc. Grand Island, N.Y.) with 10% fetal calf serum (FCS), 1% glutamine, 100 U/ml penicillin and 50 μg/ml streptomycin (all reagents from Sigma, St. Louis, Mo., unless otherwise noted). Typically, only first passage cells were used in the studies described herein.
as §1, with “Calif.). […]” for “Calif.).”

[3] = tested on: articular chondrocytes and TC28 cells; assay: Intracellular ATP, statements covering both cell preparations; format: cell-based, human; conditions: for intracellular ATP levels (qualitative): SIN-1 500 μM, NOC-12 250 μM, antimycin A and oligomycin concentration not stated
Experimental: as §1
In FIG. 1A, articular chondrocytes or TC28 cells (5×10^5) in 5 ml were studied in triplicate in the presence of antimycin (or oligomycin, see next Example) at the indicated concentrations, administered every 24 hours for a total of 72 hours, and total intracellular ATP concentrations were determined as described above. Viability determinations are shown in FIG. 1B, where 2×10^4 chondrocytes or TC28 cells in 0.2 ml were cultured in triplicate in the presence of antimycin (or oligomycin) at the indicated concentrations, administered every 24 hours for a total of 72 hours, and cell viability was determined by trypan blue dye exclusion (>200 cells counted for each replicate).

[4] = tested on: TC28 cells; assay: Cell viability by LDH release in stressor-exposed chondrocytes; format: cell-based; conditions: for cell viability (LDH release) under SIN-1 / cell viability under NOC-12 / cell viability of cells exposed to SIN-1 or NOC-12: compound 1 μM; for cell viability (LDH release) under SIN-1: 100 μM SIN-1; for cell viability under NOC-12: NOC-12 (250 μM)
Experimental: (§2) This example describes screening assays using defined chondrocyte functions, for identifying agents that protect chondrocytes from mitochondrial stressors, such as energy depletion or reactive free radicals. Chondrocytic TC28 cells were maintained at 37° C., 5% CO2 in monolayer culture in DMEM/Ham's F12 medium (1:1) supplemented with 10% FCS, 1% L-glutamine, 100 U/ml penicillin and […] streptomycin (Omega Scientific, Tarzana, Calif.). To more closely approximate the in vivo physiologic nonadherent state of chondrocytes for monitoring GAG release (FIG. 10), an in vitro culture system was used wherein TC28 cells were transferred to 6-well plates that had been previously coated for 18 hours at 22° C. with the cell adhesion inhibitor poly-2-hydroxymethacrylate (polyHEMA), provided as a 10% (w/v) solution in 95% ethanol, then washed twice with PBS. Complete medium (DMEM/F12 supplemented as described above) was then added to wells, and cells were maintained under these conditions for up to 72 hours (Folkman et al., 1978 Nature 273:345; Reginato et al., 1994 Arthritis Rheum. 37:1338). Maintenance of chondrocyte phenotype was confirmed by RT-PCR determination of gene transcripts encoding the chondrocyte extracellular matrix components type II collagen and aggrecan (Reginato et al., 1994).
Cells were exposed to one of several agonists added to cultures as stressors for 72 hours, in the absence or presence of candidate chondrocyte protective agents (listed in Table 2). According to non-limiting theory, such stressors may act as one or more of a mitochondrial inhibitor, an inducer of altered mitochondrial function, an apoptogen, an energy-depleting agent, or the like. Stressors used in this example included the […] NOC-12 (N-ethyl-2-(1-ethyl-2-hydroxy-2-nitrosohydrazino)ethanamine; Calbiochem, La Jolla, Calif.); the peroxynitrite donor SIN-1 (3-morpholinosydnonimine, HCl; Calbiochem); and the inflammatory cytokine human recombinant interleukin-1 beta (IL-1β, Calbiochem). Cytotoxicity was determined using the lactate dehydrogenase release assay (Promega, Madison, Wis.) as described above and according to the manufacturer's instructions, and chondrocyte intracellular ATP was determined using the luciferase assay as described above in Example 1.

[5] = tested on: TC28 cells; assay: GAG release, dimethylene blue dye binding; format: cell-based; conditions: for GAG release caused by stressor: TC28 nodules, SIN-1 100 μM, NOC-12 25 μM, IL-1β
Experimental: as §2
Glycosaminoglycan (GAG) release is widely believed to be a cardinal event in the pathogenesis of osteoarthritis, and is stimulated by IL-1β (see, e.g., Sztrolovics et al., 1999 Biochem. J. 339:571 and references cited therein). Therefore, GAG release was determined in chondrocytes maintained on polyHEMA-coated plates as follows: Chondrocyte cartilage “nodules” from the polyHEMA cultures were digested for one hour with papain, 300 μg/ml in 20 mM sodium phosphate-pH 6.8, 1 mM EDTA, 2 mM dithiothreitol. Released GAG was assayed colorimetrically by dimethylene blue (DMB) dye binding according to established procedures (Farndale et al., 1986 Biochim. Biophys. Acta 883:173; Sztrolovics et al., 1999 Biochem. J. 339:571). Briefly, aliquots of the papain digest were added to a dye solution containing 46 μM DMB, 40 mM glycine-pH 3.0, 40 mM NaCl and read immediately in a spectrophotometer at 525 nm. Quantification of GAG in the samples was achieved from calculations using a standard curve generated with samples of 1–50 μg/ml chondroitin sulfate. Mitochondrial protecting agents based on derivatized creatine, ethoxyquin and guanidine compounds were synthesized essentially as disclosed in WO99/37294 (PCT/US99/01718) and WO99/55321 (PCT/US99/09990), which are hereby incorporated by reference in their entireties; these agents were tested as representative candidate chondrocyte protective agents.

[6] = tested on: articular chondrocytes and TC28 cells; assay: Oxygen consumption with a Clark electrode (respiratory rate); format: cell-based, human; conditions: SIN-1 500 μM; NOC-12 250 μM; antimycin A and oligomycin concentration not stated

TGFβ
ATP (pmoles/μg DNA):TC28 cells ([1]; 10 ng/ml TGFβ, 0.025 mM antimycin A, 0.02 μg/ml oligomycin, mean ± SD): 801.6 ± 4.9 pmoles/μg DNA | ATP (pmoles/μg DNA): Articular Chondrocytes [2]: 1,158 ± 6.9 pmoles/μg DNA | increase of intracellular ATP ([3]; chondrocytes, assessed 72 hours after treatment): about 3 fold

CN(CC(=O)O)C(=N)N [C]
cell viability (LDH release) under SIN-1 [4]: protective effect on cell viability | cell viability under NOC-12 [4]: moderating effect of the test compounds on NO cytotoxicity | GAG release induced by SIN-1 or NOC-12 ([5]; SIN-1 (100 μM) or NOC-12 (25 μM), 1 μM compound, not shown): the severity of this release was moderated | IL-1β-stimulated GAG release ([5]; TC28 nodules on polyHEMA-coated plates): somewhat attenuated the degree of GAG release

N=C(N)Nc1ccc(N2CCOCC2)cc1 [E]
intracellular ATP levels relative to control culture not exposed to NOC-12 [1]: significant depression of intracellular ATP | cell viability under NOC-12 [4]: significantly higher viability

CCNCCN(CC)N(O)N=O [NOC-12, N-ethyl-2-(1-ethyl-2-hydroxy-2-nitrosohydrazino)ethanamine]
intracellular ATP levels relative to control culture not exposed to NOC-12 [1]: significant depression of intracellular ATP | GAG release caused by stressor [5]: also released GAG | respiratory rates [6]: markedly inhibited respiratory rates | intracellular ATP levels (qualitative) [3]: depressed intracellular ATP levels

CN(C)c1cc(C(C)(C)c2ccc(O)c(N(C)C)c2)ccc1O [K]
cell viability of cells exposed to SIN-1 or NOC-12 [4]: demonstrated chondrocyte protective activity

CC(C)(c1ccc(O)cc1)c1ccc(O)c(N)c1 [L]
cell viability of cells exposed to SIN-1 or NOC-12 [4]: demonstrated chondrocyte protective activity

IL-1β: inflammatory cytokine human recombinant interleukin-1 beta
effect of stressor on intracellular ATP levels ([1]; TC28 cells): did not cause a decrease in intracellular ATP levels | effect of stressor on viability ([4]; TC28 cells): did not cause a decrease | GAG release caused by stressor [5]: IL-1β-stimulated GAG release

CC(=N)NNCC1(C)CCc2c(C)c(O)c(C)c(C)c2O1 (centres unmarked) [J]
cell viability of cells exposed to SIN-1 or NOC-12 [4]: demonstrated chondrocyte protective activity

Nc1c[n+](N2CCOCC2)no1.[Cl-] [SIN-1, 3-morpholinosydnonimine, HCl]
GAG release caused by stressor [5]: also released GAG | respiratory rates [6]: markedly inhibited respiratory rates | intracellular ATP levels (qualitative) [3]: depressed intracellular ATP levels

Cc1cc(O)ccc1NC(=N)N [A]
cell viability (LDH release) under SIN-1 [4]: protective effect on cell viability | cell viability under NOC-12 [4]: moderating effect of the test compounds on NO cytotoxicity

N=C1NCCN1CC(=O)O [B]
cell viability (LDH release) under SIN-1 [4]: protective effect on cell viability | cell viability under NOC-12 [4]: moderating effect of the test compounds on NO cytotoxicity
